“Also recorded” adds a separate entry of the source.
Experiments:
[1] = test system: A431 xenografts; experiment: PET uptake in A431 xenografts after nitroglycerin (NG) ointment; format: in vivo, human tumor xenograft in NIH-Foxn1mu rat; details: NG ointment 1 mg/tumor cutaneous, [^68Ga]ABY-028 uptake
Procedure: (§1) A431 (human epidermoid carcinoma) and FaDu (human squamous carcinoma of the hypopharynx) cell lines were purchased from American Type Culture Collection (ATCC). The cells were cultured in Dulbecco’s Modified Eagle’s Medium (4500 mg/L D-glucose containing L-glutamine) and were maintained at 37 °C in a humidified atmosphere, containing 5% CO2. All media were additionally supplemented with 1 mM sodium pyruvate, 100 units penicillin/mL, 100 μg streptomycin/mL, and 10% fetal bovine serum (Gibco). Media for FaDu cells were further supplemented with 0.1 mM non-essential amino acids and 2 mM HEPES. The integrity of the cell lines was verified with short tandem repeat profiling cell authentication analysis (LGC Standards).
(§2) Rodents were anaesthetized (1.5% isoflurane (Virbac, Carros Cedex, France) blended with air (7:3) in a vaporizer (E-Z systems) delivered through a Microflex non-rebreather mask (Euthanex Corp)) and then i.v. injected (tail vein) with the radiotracer. PET imaging was performed using a microPET Focus 120 (CTI Concorde Microsystems, Knoxville, TN, USA). Data were acquired in list mode and reconstructed using Filtered Back Projection for the constant bed motion (CBM) scans or, to increase the spatial resolution in the dynamic scans, Ordered Subset […] in 2 dimensions, 4 iterations, and 16 subsets. Data, normalized and corrected for randoms, dead time, and radioactivity decay, were processed using MicroPET Manager and evaluated using the Inveon Research Workplace (IRW) software (Siemens Medical Systems, Malvern, PA, USA). The ROI selections were based on the PET images and the radioactivity in ROIs was calculated as mean or maximum standard uptake values (SUVmean or SUVmax) normalized to body weight. Blood ROIs were delineated on the left ventricle of the heart in the first frames of the scan. Liver ROIs were drawn on one lobe. Muscle ROIs were drawn on the front (rat) and hind (mouse) leg muscle on the images summed over the entire scan. […] Growth of the tumor xenografts was monitored by caliper measurements. […]

[2] = test system: FaDu xenografts; experiment: Longitudinal dual tracer PET in two FaDu xenografts; format: in vivo, human tumor xenograft in NIH-Foxn1mu rat; details: rat, [^18F]FDG
Procedure: as §1, §2

SMILES	effect of NG on tracer radioactivity in A431 xenografts [1]	effect of NG on tracer radioactivity in A431 xenografts ([1]; listed as NG)	effect of NG on tracer radioactivity in A431 xenografts ([1]; listed as Nitroglycerin (NG))	increase of uptake between early and late imaging, day 0 ([2]; both FaDu tumors, 50 to 160 min, day 0)	increase of uptake between early and late imaging, day 3 ([2]; both FaDu tumors, 50 to 160 min, day 3) [%]	decrease of SUV in tumor center, left tumor, day 3 ([2]; left FaDu tumor, area in center extending to one edge, both time points)
O=[N+]([O-])OCC(CO[N+](=O)[O-])O[N+](=O)[O-] [nitroglycerin, glyceryltrinitrate]	increased radioactivity in the A431 xenografts	A more rapid increase in focal radioactivity levels; also recorded: increased uptake of albumin-bound [^68Ga]ABY-028	NG-induced changes are revealed by the SUVmax	–	–	–
O=C[C@H]([18F])[C@@H](O)[C@H](O)[C@H](O)CO [[^18F]FDG, [2-^18F]-2-Fluoro-2-deoxy-D-glucose]	–	–	–	approximately 20%	~35	approximately 30%
